Source: patent publication US20120100361A1, “ANTISEPTIC COMPOSITION FOR ENGINEERING WOOD PRODUCTION, AND ENGINEERING WOOD” (SDS BIOTECH K.K., priority 2009, published 2012)

How the values were obtained:
Trametes versicolor [1] = experiment: Test for antiseptic effects of preservative LVL (JIS K1571:2004); format: cell-based; conditions: phenol resin
Description: (§1) 1000 g of the phenol resin-based glue Deernol D-117 (manufactured by Oshika Corporation), 70 g of wheat flour and 100 g of calcium carbonate were mixed and well kneaded. A solution of each of the compounds of Example 1 and Comparative Example 1, 2 and 5 to 25 was added to the kneaded product so that the final concentrations of the compound in the wood become 150, 100, 50 and 25 g/m^3 and further kneaded. 18 g of the above kneaded product was applied onto each of the surface of glue line of the three Radiata pine veneer sheets having an area of 30 x 30 cm and thickness of 3 mm. After bonding the three sheets to each other, the sheets were subjected to cold pressing at room temperature for 20 minutes and the thermal pressure of 140° C. (10 kgf/cm^2) was applied to the sheets for two minutes to obtain the target LVL. Each of the prepared LVL was processed into the size of 20×20×9 mm to serve as a test sample.
(§2) The samples of the plywood and LVL prepared in Preparation Examples 2 and 3 were evaluated by the test for antiseptic effects for the drug pressure treatment according to JIS K1571:2004. The weather resistance operation and the test method for the antiseptic effect were performed according to the above test method.

Fomitopsis palustris [2] = experiment: as above; format: cell-based; conditions: phenol resin
Description: as §1, §2

[3] = Test for miscibility with a phenol resin glue; format: physicochemical; parameters: key to Phenol resin status after 60 minutes: ∘: No change; x: Obvious increase in the viscosity was seen and it seems impossible to apply the composition onto the veneer sheet; conditions: for Phenol resin status after 60 minutes: 10% (w/w) solution added to phenol resin glue Deernol D-117 kneaded product, viscosity change visually observed for 60 minutes; for compatibility with phenol resin glue (in words): summary of Table 1
Description: The following compounds, which are known to have wood preservative activity, are dissolved in methyl ethylene triglycol to reach a concentration of 10% (w/w) to thereby obtain a solution of each of the compounds.
1000 g of phenol resin-based glue Deernol D-117 (manufactured by Oshika Corporation), 70 g of wheat flour and 100 g of calcium carbonate were mixed and well kneaded. Each of the solutions of Example 1 and Comparative Example 1 to 25 was added to 17 g of the kneaded product and mixed well together. The viscosity change of the glue was visually observed for 60 minutes. […] Although a number of documents listed as the prior art documents and the like teach that quaternary ammonium compounds can be applied to the glue line treatment, it is clear that those compounds have a problem for practical use (Comparative Examples 3 and 4). On the other hand, it was confirmed that the other compounds including that of Example has no problem from the viewpoint of compatibility.

Trametes versicolor [4] = experiment: Test for antiseptic effects of preservative plywood (JIS K1571:2004); format: cell-based; conditions: for average rate of decrease in weight: plywood, urea melamine resin, Trametes versicolor; for amount showing the antiseptic effect on Trametes versicolor: glue line method, summary of Tables 2 and 3
Description: (§3) 1000 g of urea melamine resin (PWP-60, manufactured by Oshika Corporation) was added to 180 g of wheat flour and fully kneaded to thereby obtain a kneaded product. 8 g of ammonium chloride was added as a hardening agent to the kneaded product, and a solution of each of the compounds of Example 1 and Comparative Example 1, 2 and 5 to 25 was further added thereto so that the final concentrations of the compound in the wood become 150, 100, 50 and 25 g/m^3 and kneaded. 18 g of the above kneaded product was applied onto each of the bonding plane of the three red lauan veneer sheets having an area of 30 x 30 cm and thickness of 0.85 mm/2.4 mm/0.85 mm. After bonding the three sheets to each other, the sheets were subjected to cold pressing at room temperature for 20 minutes and the thermal pressure of 120° C. (10 kgf/cm^2) was applied to the sheets for two minutes to obtain the target plywood. Each of the prepared plywood was processed into the size of 20×20×4.1 mm to serve as a test sample.
as §2

Fomitopsis palustris [5] = experiment: as above; format: cell-based; conditions: plywood, urea melamine resin, Fomitopsis palustris
Description: as §3, §2

fungus cellar soil-bed [6] = experiment: Fungus cellar soil-bed test of preservative LVL (JIS K1571:2004); conditions: 25° C., grade 0 sound condition to 5 out of shape due to the decay
Description: as §1
The preservative LVL was prepared in the same manner in Preparation Example 3. Each of the prepared LVL was processed into the size of 9×9×100 mm to serve as a test sample.
(§4) The samples of the plywood and LVL prepared in Preparation Examples 4 and 5 were evaluated by the fungus cellar soil-bed test according to JIS K1571:2004. The weather resistance operation and the test method for the antiseptic effect were performed according to the above test method. The test was carried out for six months setting the test temperature to 25° C. (because the grade average of the decay damage of the non-treated test samples exceeded 2.5 in six months). […] The effect in the glue line treatment was actually investigated with respect to a number of existing antiseptics, and it was confirmed that only epoxyconazole is suitable for the glue line treatment at a low concentration.

fungus cellar soil-bed [7] = experiment: Fungus cellar soil-bed test of preservative plywood (JIS K1571:2004); conditions: plywood, six months, 25° C., grade 0 sound condition to 5 out of shape due to the decay
Description: as §3
The preservative plywood was prepared in the same manner in Preparation Example 2. Each of the prepared plywood was processed into the size of 8.9 x 8.9×100 mm to serve as a test sample.
as §4

CCCCCCCCn1sccc1=O [Comparative Example 24, N-octylisothiazolin-3-one]
average rate of decrease in weight (Trametes versicolor [1]; treated amount 25 g/m^3): X (The average rate of decrease in weight was 3% or more.) | average rate of decrease in weight (Trametes versicolor [1]; treated amount 50 g/m^3): X (The average rate of decrease in weight was 3% or more.) | average rate of decrease in weight (Trametes versicolor [1]; treated amount 100 g/m^3): X (The average rate of decrease in weight was 3% or more.) | average rate of decrease in weight (Trametes versicolor [1]; treated amount 150 g/m^3): X (The average rate of decrease in weight was 3% or more.) | average rate of decrease in weight (Fomitopsis palustris [2]; treated amount 25 g/m^3): X (The average rate of decrease in weight was 3% or more.) | average rate of decrease in weight (Fomitopsis palustris [2]; treated amount 50 g/m^3): X (The average rate of decrease in weight was 3% or more.) | average rate of decrease in weight (Fomitopsis palustris [2]; treated amount 100 g/m^3): X (The average rate of decrease in weight was 3% or more.) | average rate of decrease in weight (Fomitopsis palustris [2]; treated amount 150 g/m^3): X (The average rate of decrease in weight was 3% or more.) | Phenol resin status after 60 minutes [3]: ∘ | average rate of decrease in weight (Trametes versicolor [4]; treated amount 25 g/m^3): X (The average rate of decrease in weight was 3% or more.) | average rate of decrease in weight (Trametes versicolor [4]; treated amount 50 g/m^3): X (The average rate of decrease in weight was 3% or more.) | average rate of decrease in weight (Trametes versicolor [4]; treated amount 100 g/m^3): X (The average rate of decrease in weight was 3% or more.) | average rate of decrease in weight (Trametes versicolor [4]; treated amount 150 g/m^3): X (The average rate of decrease in weight was 3% or more.) | average rate of decrease in weight (Fomitopsis palustris [5]; treated amount 25 g/m^3): X (The average rate of decrease in weight was 3% or more.) | average rate of decrease in weight (Fomitopsis palustris [5]; treated amount 50 g/m^3): X (The average rate of decrease in weight was 3% or more.) | average rate of decrease in weight (Fomitopsis palustris [5]; treated amount 100 g/m^3): X (The average rate of decrease in weight was 3% or more.) | average rate of decrease in weight (Fomitopsis palustris [5]; treated amount 150 g/m^3): X (The average rate of decrease in weight was 3% or more.) | Grade average of the decay damage of five test samples (fungus cellar soil-bed [6]; treated amount 25 g/m^3, six months): 3.0 | Grade average of the decay damage of five test samples (fungus cellar soil-bed [6]; treated amount 50 g/m^3, six months): 3.4 | Grade average of the decay damage of five test samples (fungus cellar soil-bed [6]; treated amount 100 g/m^3, six months): 3.0 | Grade average of the decay damage of five test samples (fungus cellar soil-bed [6]; treated amount 150 g/m^3, six months): 3.2 | Grade average of the decay damage of five test samples (fungus cellar soil-bed [7]; treated amount 25 g/m^3): 2.8 | Grade average of the decay damage of five test samples (fungus cellar soil-bed [7]; treated amount 50 g/m^3): 2.8 | Grade average of the decay damage of five test samples (fungus cellar soil-bed [7]; treated amount 100 g/m^3): 2.8 | Grade average of the decay damage of five test samples (fungus cellar soil-bed [7]; treated amount 150 g/m^3): 2.8

C[Si](Cn1cncn1)(c1ccc(F)cc1)c1ccc(F)cc1 [Comparative Example 10, flusilazole]
Phenol resin status after 60 minutes [3]: ∘

CCCCC(O)(Cn1cncn1)c1ccc(Cl)cc1Cl (stereo not drawn) [Comparative Example 1, hexaconazole]
Phenol resin status after 60 minutes [3]: ∘ | amount showing the antiseptic effect on Trametes versicolor (Trametes versicolor [4]): ≥ 50 g/m^3

CC1(C)CCC(=Cc2ccc(Cl)cc2)C1(O)Cn1cncn1 (stereo not drawn) [Comparative Example 20, triticonazole]
Phenol resin status after 60 minutes [3]: ∘

CCCCCCCCCC[N+](C)(C)CCCCCCCCCC.[Cl-] [Comparative Example 4, didecyldimethylammonium chloride]
Phenol resin status after 60 minutes [3]: x | compatibility with phenol resin glue (in words) [3]: harden the glue

CCCC1COC(Cn2cncn2)(c2ccc(Cl)cc2Cl)O1 (stereo not drawn) [Comparative Example 17, propiconazole]
Phenol resin status after 60 minutes [3]: ∘

N#CC(CCc1ccc(Cl)cc1)(Cn1cncn1)c1ccccc1 (stereo not drawn) [Comparative Example 9, fenbuconazole]
Phenol resin status after 60 minutes [3]: ∘

CC(C1CC1)C(O)(Cn1cncn1)c1ccc(Cl)cc1 (stereo not drawn) [Comparative Example 5, cyproconazole]
Phenol resin status after 60 minutes [3]: ∘

CC(C)(C)C(=O)C(Oc1ccc(Cl)cc1)n1cncn1 (stereo not drawn) [Comparative Example 19, triadimefon]
Phenol resin status after 60 minutes [3]: ∘

Clc1ccc(CSC(Cn2cncn2)=Nc2ccc(Cl)cc2Cl)cc1 [Comparative Example 12, imibenconazole]
Phenol resin status after 60 minutes [3]: ∘

CC(C)(C)C(O)(CCc1ccc(Cl)cc1)Cn1cncn1 (stereo not drawn) [Comparative Example 6, tebuconazole]
Phenol resin status after 60 minutes [3]: ∘

benzalkonium chloride [Comparative Example 3]
Phenol resin status after 60 minutes [3]: x | compatibility with phenol resin glue (in words) [3]: harden the glue

FC(F)C(F)(F)OCC(Cn1cncn1)c1ccc(Cl)cc1Cl (stereo not drawn) [Comparative Example 18, tetraconazole]
Phenol resin status after 60 minutes [3]: ∘

COC(=O)N(OC)c1ccccc1COc1ccn(-c2ccc(Cl)cc2)n1 [Comparative Example 22, pyraclostrobin]
Phenol resin status after 60 minutes [3]: ∘

CCCC(Cn1cncn1)c1ccc(Cl)cc1Cl (stereo not drawn) [Comparative Example 16, penconazole]
Phenol resin status after 60 minutes [3]: ∘

CC(C)C1CCC(Cc2ccc(Cl)cc2)C1(O)Cn1cncn1 (stereo not drawn) [Comparative Example 13, ipconazole]
Phenol resin status after 60 minutes [3]: ∘

Clc1ccc(C2(Cn3cncn3)OCCO2)c(Cl)c1 [Comparative Example 7, azaconazole]
Phenol resin status after 60 minutes [3]: ∘

CC1(C)CCC(Cc2ccc(Cl)cc2)C1(O)Cn1cncn1 (stereo not drawn) [Comparative Example 14, metconazole]
Phenol resin status after 60 minutes [3]: ∘

C[Si](C)(C)CC(O)(Cn1cncn1)c1ccc(F)cc1F (stereo not drawn) [Comparative Example 2, 2-(2,4-difluorophenyl)-1-(1H-1,2,4-triazole-1-yl)-3-(trimethylsilyl)propane-2-ol]
Phenol resin status after 60 minutes [3]: ∘ | amount showing the antiseptic effect on Trametes versicolor (Trametes versicolor [4]): ≥ 100 g/m^3

OC(Cn1cncn1)(c1ccc(F)cc1)c1ccccc1F (stereo not drawn) [Comparative Example 11, flutriafol]
Phenol resin status after 60 minutes [3]: ∘

C[Si](C)(C)CC(O)(Cn1cncn1)c1ccc(F)cc1 (stereo not drawn) [Comparative Example 8, simeconazole]
Phenol resin status after 60 minutes [3]: ∘

N#Cc1c(Cl)c(Cl)c(Cl)c(C#N)c1Cl [Comparative Example 25, chlorothalonil]
Phenol resin status after 60 minutes [3]: ∘

CCCCC(C#N)(Cn1cncn1)c1ccc(Cl)cc1 (stereo not drawn) [Comparative Example 15, myclobutanil]
Phenol resin status after 60 minutes [3]: ∘
